Values of other authors, collected in patent US20160128340A1, “Pest control formulation composed of Beauveria bassiana, Cold Pressed Neem Oil and Refined Pyrethrum Extract, and methods of making and using same” (priority 2014, published 2016).

Tested on: Bemisia tabaci
Conditions: Bemisia tabaci population collected in a floriculture greenhouse

| Structure (SMILES) | resistance factor at LC50 |
| --- | --- |
| Cc1c(COC(=O)[C@@H]2[C@H](/C=C(\Cl)C(F)(F)F)C2(C)C)cccc1-c1ccccc1 (racemic) [bifenthrin] | 23 fold |
| O=[N+]([O-])NC1=NCCN1Cc1ccc(Cl)nc1 [imidacloprid] | 730 fold |
| CCN(CC)c1nc(C)cc(OP(=S)(OC)OC)n1 [pirimiphos-methyl] | 18 fold |
| CC1(C)C(C=C(Cl)Cl)C1C(=O)OC(C#N)c1cccc(Oc2ccccc2)c1 (stereo not drawn) [α-cypermethrin] | 80 fold |
